Laboratory results reported in paper PMC11438102, “Modulation of cannabinoid receptor 2 alters neuroinflammation and reduces formation of alpha-synuclein aggregates in a rat model of nigral synucleinopathy” (Journal of Neuroinflammation, 2024).

Key:
PBMCs = assay: Multicolor flow cytometry of PBMCs (high cohort); format: in vivo, rat
Procedure: (§1) An additional cohort of rats (termed “high cohort”) was evaluated to determine effects of SMM-189 on immune cell populations in the brain, resident or infiltrating, and the periphery as measured by flow cytometry (Fig. 1). To ensure infiltrating peripheral immune cells, rats were stereotaxically injected with a higher titer of AAV2/5-human WT Asyn (4.6 × 10^12 vg/mL) and underwent an identical drug treatment timeline with animals sacrificed at 4 (SMM-189: n = 5; vehicle: n = 6) and 8 weeks (SMM-189: n = 7; vehicle: n = 7). At sacrifice, animals were deeply anesthetized with euthasol (i.p., 150 mg/kg) and rapid decapitation performed using a sharp guillotine. Brains were collected at endpoints, and brain immune cells isolated and evaluated using multicolor flow cytometry. Additionally, blood was collected at baseline, 4 and 8 weeks (SMM-189: n = 13; vehicle: n = 13) after stereotaxic surgery for PBMCs isolation to immunophenotype using flow cytometry and for plasma evaluation of SMM-189.
PBMCs were isolated from blood of low cohort rats at euthanasia (8 weeks) for qPCR analysis of immune genes and from blood of high cohort rats at baseline, 4 and 8 weeks after AAV2/5-human WT Asyn and evaluated with flow cytometry for a longitudinal immunophenotype assessment. Red blood cells were lysed using 1x RBC lysis buffer (Biolegend Cat#420301) for 5 min in the dark. Lysis buffer was neutralized by adding 1x HBSS (Gibco Cat#14175095). Cells were pelleted by centrifugation at 400g for 5 min, supernatant removed, and cells washed with HBSS. For the high cohort, cells were resuspended in 200μL of PBS and transferred to a 96-well v-bottom plate for flow cytometry staining. For low cohort, 10,000 cells were lysed in 600μL RLT lysis buffer (Qiagen Cat#79216) + 1% BME, further homogenized by centrifugation through a QiaShredder column (2 min at 21,130g). Lysate was then stored at -80°C and later processed for RNA extraction.
(§2) Peripheral and central immune cell staining was performed similarly as previously published protocols. In brief, immune cells were washed and resuspended in PBS, then incubated for 30 min at room temperature in LIVE/DEAD Fixable Red Dead cell stain (ThermoFisher Scientific Cat#L23102; 1:2000). Following two washes in PBS, Fc receptors were blocked with anti-rat CD32 Fc block diluted 1:100 in FACS buffer (1mM EDTA and 0.1% sodium azide in PBS) for 15 min at 4°C. PBMCs were stained for separate myeloid and lymphoid panels and brain immune cells stained with an antibody panel to identify microglia, monocytes and lymphocytes (Table S1-S3). Fluorophore conjugated antibodies diluted with FACS buffer were incubated at 4 °C for 20 min. Cells stained for surface myeloid markers were fixed in 1% PFA for 25 min and washed in FACS.
(§3) PBMCs stained with lymphoid panel were further probed intracellularly for transcriptional marker Foxp3 to label […] T cells. […] Then washed and resuspended in FACs buffer. All samples had 10uL of AccuCheck Counting beads (ThermoFisher Cat#PCB100) added to final suspension and cells were run on a LSRII Instrument (BD Biosciences, Franklin Lakes, NJ) with FACSDiva software (BD Biosciences). Results were analyzed using FlowJo 10.8.1 software and brain immune populations of monocytes (classical and non-classical), lymphocytes (CD4 + and CD8+) or microglia and PBMC populations defined by specific strategies (Figure S1-S3).
For PBMC analysis, raw frequencies were normalized across serial runs against vehicle-treated values using the following equation: Raw frequency / (average vehicle frequencies of specific run / average baseline frequencies). For brain immune cell analysis of 8 weeks, samples could not be collected and ran the same day so frequencies were normalized across treatment group at each timepoint using the following equation: raw frequency / (average treatment frequency of specific run 1 / average treatment frequency of specific run 2). […]

brain immune cells = assay: Multicolor flow cytometry of brain immune cells (high cohort); format: in vivo, rat
Procedure: as §1
Brains were collected from animals in the high cohort at either 4 or 8 weeks after AAV2/5-human WT Asyn and brain immune cells were isolated from individual hemispheres as previously described. Hemispheres were finely cut in RPMI 1640 media (Gibco Cat#11875-093) with a scalpel blade and enzymatically dissociated with collagenase VIII (1.4U/mL; Sigma Cat#C2139) and DNAse1 (1 mg/mL; Sigma Cat#DN25) in 37°C for 15 min. Enzymes were neutralized with 10%FBS (heat inactivated, Atlanta Biologicals Cat#S11150) in RPMI 1640 complete media and centrifuged 400g at room temperature. Tissue was resuspended in 1x HBSS and mechanically dissociated using a fire-polished Pasteur pipette until a cell suspension was generated. The suspension was passed through a 70µM cell strainer and strainers rinsed twice with 1x HBSS. To remove myelin, the strained suspension was centrifuged at 300g at 4 °C for 5 min and resuspended in 37% percoll and layered between 70% and 30% percoll gradients. The samples were centrifuged at 400g for 30 min at room temperature with the brake disabled. The top myelin layer was aspirated and demyelinated immune cells were collected from the 37% and 70% percoll interface with a pipette and washed with 1x HBSS twice, resuspended in PBS and placed in a 96-well v-bottom plate for flow cytometry staining.
as §2
as §3, with “S1-S3). […]” for “S1-S3).”

[1] = 4 weeks, high cohort, treatment effect vs vehicle
[2] = 8 weeks, high cohort, treatment effect
[3] = 8 weeks, high cohort, vs control
[4] = 8 weeks, high cohort, vs vehicle

O=C(c1ccccc1)c1cc(O)c(-c2cc(Cl)cc(Cl)c2)c(O)c1 [SMM-189]
MHCII MFI on CD43-His48+ classical monocytes (PBMCs; 4 weeks, vs control): increased | frequencies of Tregs (CD4+Foxp3+; CD4+Foxp3+CD25+) (PBMCs; 8 weeks compared to own baseline): elevated | granulocytes (PBMCs; 8 weeks, vs vehicle): decreases | wound-healing non-classical monocytes (CD43+) (PBMCs; 8 weeks, vs vehicle): increases | Lymphocyte frequencies of CD4 or CD8 populations (or the CD4 to CD8 ratio) (PBMCs; between treatments): did not reveal significant differences | counts of both CD4 and CD8+ T cells (PBMCs; vs vehicle): decreased | circulating classically-activated monocytes (CD43-His48+) (PBMCs; weeks 4 and 8, vs vehicle): reduced | CD3+ lymphocytes parent population in brain (brain immune cells; 4 weeks, high cohort): No CD3 + lymphocytes parent population differences | CD8 T cell frequencies in brain (brain immune cells; 4 weeks, high cohort): not significantly different | MHCII MFI on microglia (brain immune cells; 4 weeks, high cohort): no changes | classical or non-classical monocyte subset frequencies in brain (brain immune cells; 4 weeks, high cohort): no treatment differences | frequency of microglia (brain immune cells; 4 weeks, high cohort): no difference | frequencies of CD4+ T cells in brain (brain immune cells; 4 weeks, high cohort, treatment effect): overall reduction | frequency of CD45hiCD11b myeloid/monocytes in brain (brain immune cells; [1]): reduced | frequency of CD163+ macrophages in brain (brain immune cells; [1]): reduced | MFI of CD11b on microglia (brain immune cells; 4 weeks, unlesioned hemispheres, vs control): reduced | intensity of MHCII on microglia (brain immune cells; 8 weeks, high cohort): no different | microglial MFI of CD11b (brain immune cells; [2]): elevated | microglial MFI of CD172a (brain immune cells; [2]): elevated | brain population frequency of lymphocytes (CD45+CD11b-) (brain immune cells; [3]): did not affect | brain population frequency of macrophages (CD11b+CD163+) (brain immune cells; [3]): did not affect | brain population frequency of microglia (CD45loCD11b+) (brain immune cells; [3]): did not affect | brain population frequency of monocytes (CD45hiCD11b+) (brain immune cells; [3]): did not affect | CD4+ lymphocytes in brain (brain immune cells; [4]): increased | CD8+ lymphocytes in brain (brain immune cells; [4]): decreased | frequency of MHCII+ classical (CD43-) monocytes in brain (brain immune cells; 8 weeks, lesioned hemispheres, vs vehicle): elevated
